Reference: patent EP3046573B1, “AMYLIN ANALOGUES” (Zealand Pharma A/S, priority 2013, dated 2015)
Read-outs that look alike come from different tables or passages of the source. Numbered stars: 1 amine (or outer) side, 2 acyl side, 3 side chain; on linkers, the order of the positions; unused ones are H or OH. Bridge positions count the residues as written; N and C are the ends. Square brackets hold non-standard residues; d marks the D form. Peptide text beside a SMILES is read from it. * marks the point of attachment. C20 diacid = O=C(O)CCCCCCCCCCCCCCCCCCC(=O)*; γGlu = O=C(O)[C@H](CCC(=O)[*:2])N[*:1]; NMeI = CC[C@H](C)[C@H](NC)C(=O)O; Pip = O=C(O)[C@@H]1CCCCN1; Sar = CNCC(=O)O

Assays:
[1] = target: T1, human calcitonin receptor (hCTR2) (Homo sapiens, UniProt P30988); assay: hCTR2 assay: induction of cAMP (AlphaScreen cAMP Assay kit) in COS7 cells expressing hCTR2; type: cell-based
T1 construct: expressed in transfected cells
T1 sequence (P30988 25-474): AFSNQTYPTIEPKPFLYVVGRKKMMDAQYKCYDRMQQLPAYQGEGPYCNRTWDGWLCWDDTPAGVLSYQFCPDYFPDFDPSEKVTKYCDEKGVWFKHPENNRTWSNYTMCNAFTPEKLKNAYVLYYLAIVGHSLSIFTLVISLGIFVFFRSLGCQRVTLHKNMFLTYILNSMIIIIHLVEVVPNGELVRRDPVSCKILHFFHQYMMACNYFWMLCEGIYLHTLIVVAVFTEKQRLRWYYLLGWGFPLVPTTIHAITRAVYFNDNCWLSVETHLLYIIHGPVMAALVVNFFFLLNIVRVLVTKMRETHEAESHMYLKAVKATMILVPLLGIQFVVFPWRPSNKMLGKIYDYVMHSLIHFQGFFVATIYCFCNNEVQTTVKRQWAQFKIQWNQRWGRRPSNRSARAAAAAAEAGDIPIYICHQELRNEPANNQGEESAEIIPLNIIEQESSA
How it was run: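 Stable RAMP-naive COS7 clone expressing hCTR2 was stimulated with increasing peptide concentrations in Tyrode buffer (pH 7.4) with 100 µM IBMX and 0.1% casein for 15 min at 37° C. Cells were lysed and cAMP measured by AlphaScreen. EC50 and efficacy relative to pramlintide came from 4PL curve fits.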

[2] = target: T2, human amylin receptor 3 (hAMYR3) consisting of hCTR2 co-expressed with human Receptor Activity Modifying Protein 3 (hRAMP3) (Homo sapiens, UniProt O60896+P30988); assay: hAMYR3 assay: induction of cAMP (AlphaScreen cAMP Assay kit) in COS7 cells expressing hAMYR3; type: cell-based
T2 construct: expressed in transfected cells
T2 sequence (P30988 25-474): T1 sequence (P30988 25-474)
T2 sequence (O60896 24-148 partner): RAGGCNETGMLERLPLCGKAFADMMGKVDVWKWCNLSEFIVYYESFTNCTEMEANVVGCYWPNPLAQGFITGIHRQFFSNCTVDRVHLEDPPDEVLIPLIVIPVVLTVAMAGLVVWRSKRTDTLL
How it was run: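 Stable COS7 clone co-expressing hCTR2 and hRAMP3, stimulated 15 min at 37° C with increasing peptide in Tyrode buffer pH 7.4 with 100 µM IBMX and 0.1% casein. cAMP measured by AlphaScreen after lysis; EC50 and % efficacy versus pramlintide from 4PL fit.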

[3] = Solubility assessment (turbidity absorbance at 325 nm); type: physicochemical; conditions: stock 2 mg/ml diluted 1:1, ambient temperature (typically 25°C), n=1; for Solubility, Acetate buffer pH 4: 100 mM acetate buffer pH 4.0; for Solubility, Acetate buffer pH 5: 100 mM acetate buffer pH 5.0; for Solubility, Histidine buffer pH 6: 100 mM histidine buffer pH 6.0; for Solubility, Histidine buffer pH 7: 100 mM histidine buffer pH 7.0; for Solubility, Phosphate buffer pH 6: 100 mM phosphate buffer pH 6.0; for Solubility, Phosphate buffer pH 7: 100 mM phosphate buffer pH 7.0; for Solubility, Phosphate buffer pH 7.5: 100 mM phosphate buffer pH7.5
How it was run: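 Peptide stock (2 mg/ml) in water acidified to pH 2.5 with HCl was diluted 1:1 into 100 mM acetate (pH 4.0, 5.0), histidine (pH 6.0, 7.0) or phosphate (pH 6.0, 7.0, 7.5) buffer. A280 and A325 were read at about 25°C, n=1. A325 ≤ 0.02 meant solubility ≥ 1 mg/ml.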

[4] = cAMP induction in COS7 cells expressing hCTR2, average of a minimum of 3 determinations, read-out: hCTR2 EC50
[5] = cAMP induction in COS7 cells expressing hAMYR3, average of a minimum of 3 determinations, read-out: hAMY R3 EC50

Q: Which results are given for `CC[C@H](C)[C@@H](C(=O)N[C@@H](CC(C)C)C(=O)N[C@@H](CO)C(=O)N[C@@H](CO)C(=O)N[C@H](C(=O)N[C@@H](CC(N)=O)C(=O)N[C@H](C(=O)NCC(=O)N[C@@H](CO)C(=O)N[C@@H](CC(N)=O)C(=O)N[C@H](C(=O)N[C@@H](Cc1ccc(O)cc1)C(=O)NC)[C@@H](C)O)C(C)C)[C@@H](C)O)N(C)C(=O)CN(C)C(=O)[C@H](Cc1ccccc1)NC(=O)[C@H](CC(N)=O)NC(=O)[C@H](CC(N)=O)NC(=O)[C@H](CO)NC(=O)[C@H](CO)NC(=O)[C@H](CCCNC(=N)N)NC(=O)[C@H](Cc1c[nH]cn1)NC(=O)[C@H](CC(C)C)NC(=O)[C@H](Cc1ccccc1)NC(=O)[C@H](CCC(=O)O)NC(=O)[C@H](C)NC(=O)[C@H](CC(C)C)NC(=O)[C@H](CCCNC(=N)N)NC(=O)[C@H](CCC(N)=O)NC(=O)[C@@H](NC(=O)[C@H](C)NC(=O)[C@@H]1CSSC[C@H](NC(=O)[C@H](CCCNC(=N)N)NC(=O)CC[C@H](NC(=O)CCCCCCCCCCCCCCCCCCC(=O)O)C(=O)O)C(=O)N[C@@H](CC(N)=O)C(=O)N[C@@H]([C@@H](C)O)C(=O)N[C@@H](C)C(=O)N[C@@H]([C@@H](C)O)C(=O)N1)[C@@H](C)O` [Compound 155, [19CD]-isoGlu-RC()NTATC()ATQRLAEFLHRSSNNF-Gly(Me)-Ile(Me)-LSSTNVGSNTY-NHMe] ({C20 diacid-γGlu}-RCNTATCATQRLAEFLHRSSNNF[Sar][NMeI]LSSTNVGSNTY-NHMe; disulfide 2-7)?
A: EC50 [1, 4]: 0.67 nM; EC50 [2, 5]: 5.3 nM; Solubility, Acetate buffer pH 4 [3]: SS (SS indicates solubility ≥ 1mg/ml); Solubility, Acetate buffer pH 5 [3]: SS (SS indicates solubility ≥ 1mg/ml); Solubility, Histidine buffer pH 6 [3]: II (II indicates solubility ≤ 1 mg/ml); Solubility, Histidine buffer pH 7 [3]: II (II indicates solubility ≤ 1 mg/ml); Solubility, Phosphate buffer pH 6 [3]: II (II indicates solubility ≤ 1 mg/ml); Solubility, Phosphate buffer pH 7 [3]: II (II indicates solubility ≤ 1 mg/ml); Solubility, Phosphate buffer pH 7.5 [3]: II (II indicates solubility ≤ 1 mg/ml)

Q: For `CC[C@H](C)[C@@H](C(=O)N[C@@H](CC(C)C)C(=O)N[C@@H](CO)C(=O)N[C@@H](CO)C(=O)N[C@H](C(=O)N[C@@H](CC(N)=O)C(=O)N[C@H](C(=O)NCC(=O)N[C@@H](CO)C(=O)N[C@@H](CC(N)=O)C(=O)N[C@H](C(=O)N1CCCC[C@H]1C(N)=O)[C@@H](C)O)C(C)C)[C@@H](C)O)N(C)C(=O)[C@H](C)NC(=O)CN(C)C(=O)[C@H](Cc1ccccc1)NC(=O)[C@H](CC(N)=O)NC(=O)[C@H](CC(N)=O)NC(=O)[C@H](CO)NC(=O)[C@H](CO)NC(=O)[C@H](CCCNC(=N)N)NC(=O)[C@H](Cc1c[nH]cn1)NC(=O)[C@H](CC(C)C)NC(=O)[C@H](Cc1ccccc1)NC(=O)[C@H](CCC(=O)O)NC(=O)[C@H](C)NC(=O)[C@H](CC(C)C)NC(=O)[C@H](CCCNC(=N)N)NC(=O)[C@H](CCC(N)=O)NC(=O)[C@@H](NC(=O)[C@H](C)NC(=O)[C@@H]1CSSC[C@H](NC(=O)[C@H](CCCNC(=N)N)NC(=O)CC[C@H](NC(=O)CCCCCCCCCCCCCCCCCCC(=O)O)C(=O)O)C(=O)N[C@@H](CC(N)=O)C(=O)N[C@@H]([C@@H](C)O)C(=O)N[C@@H](C)C(=O)N[C@@H]([C@@H](C)O)C(=O)N1)[C@@H](C)O` [Compound 109, [19CD]-isoGlu-RC()NTATC()ATQRLAEFLHRSSNNF-Gly(Me)-A-Ile(Me)-LSSTNVGSNT-Pip-NH2] ({C20 diacid-γGlu}-RCNTATCATQRLAEFLHRSSNNF[Sar]A[NMeI]LSSTNVGSNT[Pip]-NH2; disulfide 2-7), which EC50 [1] is on record?
A: 0.3 nM

Q: And the EC50 [2]?
A: 0.52 nM

Q: And the “Solubility, Acetate buffer pH 4” value [3]?
A: SS (SS indicates solubility ≥ 1mg/ml)

Q: And the “Solubility, Acetate buffer pH 5” value [3]?
A: SS (SS indicates solubility ≥ 1mg/ml)

Q: What about the “Solubility, Histidine buffer pH 6” value [3] of the same compound?
A: SS (SS indicates solubility ≥ 1mg/ml)

Q: And the “Solubility, Histidine buffer pH 7” value [3]?
A: SS (SS indicates solubility ≥ 1mg/ml)

Q: What about the “Solubility, Phosphate buffer pH 6” value [3] of the same compound?
A: II (II indicates solubility ≤ 1 mg/ml)

Q: And the “Solubility, Phosphate buffer pH 7” value [3]?
A: SS (SS indicates solubility ≥ 1mg/ml)

Q: What about the “Solubility, Phosphate buffer pH 7.5” value [3] of the same compound?
A: SS (SS indicates solubility ≥ 1mg/ml)

Q: For `CC[C@H](C)[C@@H](C(=O)N[C@@H](CC(C)C)C(=O)N[C@@H](CO)C(=O)N[C@@H](CO)C(=O)N[C@H](C(=O)N[C@@H](CCC(=O)O)C(=O)N[C@H](C(=O)NCC(=O)N[C@@H](CO)C(=O)N[C@@H](CCC(=O)O)C(=O)N[C@H](C(=O)N1CCC[C@H]1C(N)=O)[C@@H](C)O)C(C)C)[C@@H](C)O)N(C)C(=O)[C@H](C)NC(=O)CN(C)C(=O)[C@H](Cc1ccccc1)NC(=O)[C@H](CO)NC(=O)[C@H](CO)NC(=O)[C@H](CO)NC(=O)[C@H](CO)NC(=O)[C@H](CCCNC(=N)N)NC(=O)[C@H](Cc1c[nH]cn1)NC(=O)[C@H](CC(C)C)NC(=O)[C@H](Cc1ccccc1)NC(=O)[C@H](CCC(=O)O)NC(=O)[C@H](C)NC(=O)[C@H](CC(C)C)NC(=O)[C@H](CCCNC(=N)N)NC(=O)[C@H](CCC(=O)O)NC(=O)[C@@H](NC(=O)[C@H](C)NC(=O)[C@@H]1CSSC[C@H](NC(=O)[C@H](CCCNC(=N)N)NC(=O)CC[C@H](NC(=O)CCCCCCCCCCCCCCCCCCC(=O)O)C(=O)O)C(=O)N2CCC[C@H]2C(=O)N[C@@H]([C@@H](C)O)C(=O)N[C@@H](C)C(=O)N[C@@H]([C@@H](C)O)C(=O)N1)[C@@H](C)O` [Compound 136, [19CD]-isoGlu-RC()PTATC()ATERLAEFLHRSSSSF-Gly(Me)-A-Ile(Me)-LSSTEVGSETP-NH2] ({C20 diacid-γGlu}-RCPTATCATERLAEFLHRSSSSF[Sar]A[NMeI]LSSTEVGSETP-NH2; disulfide 2-7), which EC50 [1, 4] is on record?
A: 0.12 nM

Q: What about the EC50 [2, 5] of the same compound?
A: 0.29 nM

Q: And the “Solubility, Acetate buffer pH 4” value [3]?
A: SS (SS indicates solubility ≥ 1mg/ml)

Q: What about the “Solubility, Acetate buffer pH 5” value [3] of the same compound?
A: SS (SS indicates solubility ≥ 1mg/ml)

Q: What about the “Solubility, Histidine buffer pH 6” value [3] of the same compound?
A: SS (SS indicates solubility ≥ 1mg/ml)

Q: What about the “Solubility, Histidine buffer pH 7” value [3] of the same compound?
A: SS (SS indicates solubility ≥ 1mg/ml)

Q: And the “Solubility, Phosphate buffer pH 6” value [3]?
A: SS (SS indicates solubility ≥ 1mg/ml)

Q: And the “Solubility, Phosphate buffer pH 7” value [3]?
A: SS (SS indicates solubility ≥ 1mg/ml)

Q: What about the “Solubility, Phosphate buffer pH 7.5” value [3] of the same compound?
A: SS (SS indicates solubility ≥ 1mg/ml)
